Assays:
R. solanacearum [1] = assay type: cell-based; conditions: Oxford cup, 37° C., 16-18 hours, FIG. 1
R. solanacearum [2] = conditions: for bactericidal activity against R. solanacearum: from data in Table 4

Row | Compound | bactericidal activity (zone of inhibition), preliminary screening (R. solanacearum [1]) | LC50 (R. solanacearum [2]) | LC50 (E. carotovora) | activity against E. carotovora compared with the control drugs (E. carotovora) | LC50 (E. coli) | activity against E. coli compared with the control drugs (E. coli) | bactericidal activity against R. solanacearum (R. solanacearum [2])
1 | CCn1cc(C(=O)O)c(=O)c2cc(F)c(Cl)nc21 [Compound I38] | significant bactericidal activity | 12.724 ppm | 0.264 ppm | more active against E. carotovora than the control drugs | 12.643 ppm | – | –
2 | CCn1cc(C(=O)O)c(=O)c2ccc(C)nc21 [Compound I36] | significant bactericidal activity | 30.519 ppm | 15.743 ppm | – | 37.917 ppm | – | –
3 | O=C(O)c1cn(C2CC2)c2ccccc2c1=O [Compound I2] | significant bactericidal activity | 13.790 ppm | 5.284 ppm | – | 0.913 ppm | more active against E. coli than the control drugs | –
4 | [H]/N=C(/N)N[C@H]1[C@H](O)[C@@H](O)[C@H](O[C@@H]2O[C@@H](C)[C@](O)(C=O)[C@H]2O[C@@H]2O[C@@H](CO)[C@H](O)[C@@H](O)[C@@H]2NC)[C@@H](N/C(N)=N\[H])[C@@H]1O [Streptomycin, reference compound] | – | 0.169 ppm | 4.519 ppm | – | 1.918 ppm | – | –
5 | O=C(O)c1cn(C2CC2)c2nc(N3CCNCC3)c(F)cc2c1=O [Compound I44] | significant bactericidal activity | 0.284 ppm | 0.00018 ppm | more active against E. carotovora than the control drugs | 0.0000091 ppm | more active against E. coli than the control drugs | significant bactericidal activity
6 | O=C(O)c1cn(C2CC2)c2nc(Cl)c(F)cc2c1=O [Compound I40] | significant bactericidal activity | 0.002 ppm | 4.040 ppm | more active against E. carotovora than the control drugs | 0.064 ppm | more active against E. coli than the control drugs | significant bactericidal activity

— patent US20240215578A1 (priority 2022, published 2024)
